Measured values from patent US10106778B2, “Selective targeting of cancer stem cells” (Whitehead Institute for Biomedical Research, priority 2012, dated 2018).

Assays:
Assay type in all cases: cell-based, human
p-PLCγ2^Y1217 = test: Western blot of PLCγ2 phosphorylation in NAMECs; settings: 5 μM, within 30 min
Procedure: (§1) To obtain protein extracts, cells were scraped from culture dishes in chilled PBS, centrifuged at 450×g for 4 min at 4° C., washed again in PBS, and incubated for 20 min in ice cold lysis buffer containing freshly added protease inhibitors (0.5 mM phenylmethylsulfonyl fluoride, 10 μg/ml leupeptin, 2 μg/ml aprotonin). Lysates were cleared by centrifugation at 12,100×g, 4° C. for 10 min and the supernatant was snap frozen in liquid nitrogen. Protein concentrations were determined using Bradford Dye (Bio-Rad). 30 μg total protein was separated by SDS-PAGE on NuPAge gels (Invitrogen), and transferred to Hybond-P PVDF membrane (GE Healthcare). The membrane was probed with specific primary antibodies and antibody-protein complex detected by HRP-conjugated antibodies and ECL-Plus (Amersham Biosciences).
(§2) Protein levels of both phospholipase Cγ1 and 2 (PLCγ1 and PLCγ2), which transduce signals from PDGFRα/β to PKCα, were also elevated in these cells by an average of 4.57 and 2.38-fold, respectively (FIG. 4E). To test whether PLCγ is being activated by PDGFR through phosphorylation, NAMECs were treated with PDGFR inhibitors.

[1] = tested on: p-PKCα^S497 and p-PKCα^T638; test: Western blot of PKCα phosphorylation in NAMECs
Procedure: as §1
We subsequently sought to determine whether PKCα activation was directly dependent upon PDGFR-PLCγ. Exposure of NAMECs to a PLCγ inhibitor (U73122) reduced active p-PKCα^S497 and p-PKCα^T638 by 1.3 and 3.1-fold respectively within 30 min, and 6.3 and 4.2-fold respectively by 60 min (FIG. 13C); total PKCα level was unchanged (FIG. 13C). The inhibition of PDGFR in NAMECs, similarly, led to a loss of PKCα phosphorylation (p-PKCα^S497: 2.8 fold, p-PKCα^T638: 5.9 fold), as illustrated once again by the loss of active p-PKCα^S497 and p-PKCα^T638 within 30 min, while total PKCα remained constant (FIG. 13D).

[2] = tested on: p-B-Raf, p-c-Raf, p-MEK1/2 and p-ERK1/2; test: Western blot of MAPK/ERK signaling in NAMECs; settings: 30 min
Procedure: as §1
We assessed whether mesenchymal cells contained higher Ras expression or activated Ras. […] We assessed whether enhanced ERK signaling in the mesenchymal cell state was primarily mediated through the activated PDGFR and PKCα signaling cascade, rather than through activation via a Ras-Raf pathway. To test this, we exposed NAMECs to PKCα-specific inhibitors for 30 min. This reduced p-B-Raf and p-c-Raf expression, and led to the loss of p-MEK1/2 and p-ERK1/2 (FIG. 5F). […] Therefore, the enhanced activity of ERK signaling during EMT was, in part, conferred by signaling through PDGFR and PKCα.

[3] = tested on: NAMEC-Tom-Ras and HMLE-GFP-Ras cells; test: Co-mixed NAMEC-Tom-Ras (CSC-enriched) and HMLE-GFP-Ras (CSC-depleted) cells, kinase inhibition, FACS; settings: dose response, co-mixed cells
Procedure: (§3) Kinase inhibitors and other chemical compounds were obtained from various sources listed below. These were dissolved or diluted in DMSO. To set up the screen, 75,000 NAMEC-Tom and 15,000 HMLE-GFP cells were seeded into each well of a 6-well tissue culture plate. The following day, spent media was replaced with 3 ml of fresh media. Inhibitors were added to achieve the desired range of concentrations. For control treatment, DMSO was added. Fresh media containing inhibitors were replaced daily during the six day period. For analysis, cells were trypsinized with 1 ml 0.15% trypsin, diluted with 1 ml serum-containing media and fixed with 1 ml of 4% paraformaldehyde. FACS analysis was performed to analyze the proportion of surviving cells relative to DMSO-treated control for NAMEC-Tom or HMLE-GFP cells. To test the effects of these inhibitors on CSCs and non-CSCs, NAMEC-Ras-Tom and […] were used in similar co-mixed experiments.
as §3, with “experiments. To assess the fraction of cells undergoing apoptosis, cells were exposure to agents for three days without fresh media and then analyzed with Annexin V-APC (BD Biosciences).” for “experiments.”
Having determined that NAMEC-Ras cells were enriched for CSCs, we mixed NAMEC-Ras cells labeled with tdTomato (NAMEC-Tom-Ras) and HMLE-Ras cells labeled with GFP (HMLE-GFP-Ras) and re-tested the effects of kinase inhibition as described above. […] In addition, these NAMEC-Tom-Ras cells were more resistant to paclitaxel (11.3 fold) and staurosporine (32.8 fold) than the corresponding HMLE-GFP-Ras cells used as controls (FIG. 3C).

p-FRA1^S265 = test: Western blot of FRA1 phosphorylation in NAMECs; settings: applied to NAMECs for 30 min
Procedure: as §1
FRA1 is a member of the Fos family of transcription factors, which is also comprised of c-Fos, FosB and Fra2. Together with the Jun family of transcription factors composed of c-Jun, JunB and JunD, individual members of the Fos and Jun family associate with one another to form heterodimeric activator protein-1 (AP-1) complexes that bind and transcriptionally regulate target gene expression when phosphorylated (Eferl and Wagner, 2003).
We assessed whether the observed increased p-FRA1 activity in the mesenchymal cells could be further augmented by elevated ERK signaling during EMT. Accordingly, inhibition of ERK1/2 phosphorylation with a MEK inhibitor was able to decrease p-FRA1^S265 levels by 65% but not the levels of total FRA1 or p-c-Jun (FIG. 5G), confirming that ERK1/2 signaling promoted p-FRA1 activity.

p-PLCγ1^Y783 = test: Western blot of PLCγ1 phosphorylation in NAMECs; settings: 5 μM, within 30 min
Procedure: as §1, §2

COc1cc2ncnc(N3CCN(C(=O)Nc4ccc(Oc5ccccc5)cc4)CC3)c2cc1OC [PDGFR Inh III]
effect on p-PLCγ2^Y1217 (p-PLCγ2^Y1217): reduced
effect on PKCα phosphorylation [1]: reduced phosphorylation of PKCα
effect on phospho-proteins of ERK signaling [2]: downregulation of B-Raf and C-Raf phosphorylation, and dampening ERK signaling
which cell type is more sensitive / selected against [3]: NAMEC-Ras-Tom cells were more sensitive
effect on phosphorylation of FRA1 (p-FRA1^S265): blocked the phosphorylation of FRA1
effect on p-PLCγ1^Y783 (p-PLCγ1^Y783): reduced
